Experimental data taken from article PMC7895462 (Neurochemical research, 2017).
Read-outs that look alike come from different tables or passages of the source.

Tests used:
MES-induced seizures [1] = assay: Maximal electroshock; format: in vivo; details: for Mouse I.P identification MES / Mouse P.O. identification MES: 0.5 and 2 h, default doses 30, 100, 300 mg/kg; for ED50: Mus musculus
MES-induced seizures [2] = assay: Maximal electroshock; format: in vivo
[3] = tested on: psychomotor seizures induced by 6 Hz 44 mA corneal stimulus; assay: 6 Hz 44 mA mouse test; format: in vivo; details: for ED50: Mus musculus; for Mouse I.P identification 44 mA / Mouse P.O. identification 44 mA: 6 Hz 44 mA, 0.5 and 2 h, default doses 30, 100, 300 mg/kg
in vivo [4] = details: mouse
[5] = in vivo; for Rat I.P. identification TOX: ip; for Rat P.O. identification TOX: po
[6] = tested on: 60 Hz corneal kindled seizures; details: for average seizure score (SEM): corneal kindled mouse; for protected in the corneal kindled mouse: 30 min after administration
[7] = tested on: 60 Hz corneal kindled seizures; assay: animal or person; details: Mus musculus, ip
[8] = 0.5 and 2 h, default doses 30, 100, 300 mg/kg
Minimal motor impairment = details: for TD50: rat, in vivo
[9] = tested on: spontaneous bursting of a mEC-HC slice; assay: In vitro post-KA rat spontaneous bursting mEC-HC slice; format: cell-based
in vivo [10] = details: rat
[11] = ip, read-out: Mouse I.P. quantification 44 mA (ED50)
[12] = po, read-out: Mouse P.O. quantification 44 mA (ED50)
[13] = ip, read-out: Mouse I.P. quantification MES (ED50)
[14] = po, read-out: Mouse P.O. quantification MES (ED50)
[15] = read-out: Mouse CKM (I.P.) Quant (ED50), i.p.
[16] = ip, Rat I.P. quantification TOX (TD50)
[17] = po, Rat P.O. quantification TOX (TD50)
[18] = read-out: Mouse CKM (I.P.) Quant (ED50)

| Compound | Mouse I.P identification MES (MES-induced seizures [1]) | Mouse P.O. identification MES (MES-induced seizures [1]) | Rat I.P. identification MES (MES-induced seizures [2]) | Rat P.O. identification MES (MES-induced seizures [2]) | ED50 [3, 11] [mg/kg] | ED50 [3, 12] [mg/kg] | Mouse I.P identification 44 mA [3] | Mouse P.O. identification 44 mA [3] | TD50 (in vivo [4]; ip) [mg/kg] | TD50 (in vivo [4]; po) [mg/kg] | Rat I.P. identification TOX [5] | Rat P.O. identification TOX [5] | Mouse CKM (I.P.) ID ([6]; i.p.) | ED50 (MES-induced seizures [1]; [13]) [mg/kg] | ED50 (MES-induced seizures [1]; [14]) [mg/kg] | ED50 [7, 15] [mg/kg] | Mouse P.O. identification TOX [8] | Rat I.P. identification TOX (Minimal motor impairment) | Rat P.O. identification TOX (Minimal motor impairment) | other results |
| --- | --- | --- | --- | --- | --- | --- | --- | --- | --- | --- | --- | --- | --- | --- | --- | --- | --- | --- | --- | --- |
| CC[C@@H](C(N)=O)N1CCCC1=O [Levetiracetam, levetiracetam] | − | − | − | − | > 1500 | > 500 | + | + | > 1500 | > 500 | − | − | + |  |  |  |  |  |  |  |
| CCCC(CCC)C(=O)O [Valproic acid, valproic acid] |  | − | − | − | 239 | > 300 | + | − | > 300 | < 300 | − | − | + | > 60 | > 300 | 94 |  |  |  | Mouse CKM (I.P.) Quant (ED50) ([6]; i.p.): 94.02 mg/kg; protective index (PI), corneal kindled mouse ([6]; male, CF-1, mouse, in vivo, ip): > 94 |
| CCOC(=O)Nc1ccc(NCc2ccc(F)cc2)cc1N [Retigabine, retigabine] | + | + | + | + | 32.5 | 75.1 | + | + | 129 | > 500 |  |  | + | 25.7 | 57 |  | + | + | + | TD50 (Minimal motor impairment; [16]): 23.4 mg/kg; TD50 (Minimal motor impairment; [17]): 64.4 mg/kg; ED50 [7, 18]: 13.7 mg/kg |
| OC[C@H]1O[C@@H](n2cnc3c(NC4CCCC4)ncnc32)[C@H](O)[C@@H]1O [N6-Cyclopentyladenosine, N^6-cyclopentyladenosine] | + | + | + | + | 0.19 | 1.36 | + | + | 0.94 | 6.94 |  |  | − | 1.01 | 4.43 |  | + | + | + | Mouse I.P identification TOX [8]: +; TD50 (Minimal motor impairment; [17]): > 10 mg/kg; average seizure score (SEM) ([6]; 0.1 mg/kg): 4.75 ± 0.25; average seizure score (SEM) ([6]; 2 mg/kg): 4.88 ± 0.13 |
| Cc1ccsc1C(=CCCN1CCC[C@@H](C(=O)O)C1)c1sccc1C [Tiagabine, tiagabine] | − | − | − | − | 1.03 | 1.87 | + | + | 5.84 | 33.2 | + | − |  |  |  |  |  |  |  |  |
| CN1C(=O)CC(=O)N(c2ccccc2)c2cc(Cl)ccc21 [Clobazam, clobazam] | + | + | − | − | 4.5 | 6.99 | + | + | 26.1 | 197 |  |  | + | 16.5 | 29.9 |  | − | − | − | Mouse I.P identification TOX [8]: +; TD50 (Minimal motor impairment; [16]): 15.7 mg/kg; protective index (PI), corneal kindled mouse ([6]; calculated based on the i.p. TD50): 10.3; ED50 [7, 18]: 2.53 mg/kg |
| CC(=O)Nc1ccc(O)cc1 [Acetaminophen, acetaminophen] | − | − | − | − |  |  | − | − |  |  | − | − | + |  |  | > 450 |  |  |  | amplitude of spontaneous bursts ([9]; 3000 μM): small, but significant increase; acute effects on spontaneous bursting in vitro ([9]; concentrations up to 1000 μM): did not identify any acute effects; protected in the corneal kindled mouse ([6]; 20 mg/kg, i.p.): 1/8; protected in the corneal kindled mouse ([6]; 80 mg/kg, i.p.): 0/8; protected in the corneal kindled mouse ([6]; 120 mg/kg, i.p.): 1/8; protected in the corneal kindled mouse ([6]; 150 mg/kg, i.p.): 2/8; protected in the corneal kindled mouse ([6]; 175 mg/kg, i.p.): 0/12; death of corneal kindled mice ([6]; 450 mg/kg, 24-hours later): 1/4; protected in the corneal kindled mouse ([6]; 450 mg/kg, i.p.): 3/4 |
| NC(=O)N1c2ccccc2C=Cc2ccccc21 [Carbamazepine, carbamazepine] | + | + | + | + | 31.4 | 63.7 | + | + |  | 95.4 | + | + | + | 8.38 | 11.3 | 6.42 |  |  |  | TD50 (in vivo [10]; ip): 22.9 mg/kg; TD50 (in vivo [10]; po): > 500 mg/kg; protective index (PI), corneal kindled mouse ([6]; male, CF-1, mouse, in vivo, ip): 7.1 |
